For orientation: IC50 means the point on the concentration scale where inhibition reaches its midpoint. Higher therefore signals weaker potency in that assay.

From ChEMBL document CHEMBL1932918, “AChE inhibitor: a regio- and stereo-selective 1,3-dipolar cycloaddition for the synthesis of novel substituted 5,6-dimethoxy spiro[5.3']-oxindole-spiro-[6.3″]-2,3-dihydro-1H-inden-1″-one-7-(substituted aryl)-tetrahydro-1H-pyrrolo[1,2-c][1,3]thiazole” (Bioorg Med Chem Lett, 2012) come the findings set out here.

Molecules are shown by their SMILES.

Sequence of Acetylcholinesterase (O42275 whole entry): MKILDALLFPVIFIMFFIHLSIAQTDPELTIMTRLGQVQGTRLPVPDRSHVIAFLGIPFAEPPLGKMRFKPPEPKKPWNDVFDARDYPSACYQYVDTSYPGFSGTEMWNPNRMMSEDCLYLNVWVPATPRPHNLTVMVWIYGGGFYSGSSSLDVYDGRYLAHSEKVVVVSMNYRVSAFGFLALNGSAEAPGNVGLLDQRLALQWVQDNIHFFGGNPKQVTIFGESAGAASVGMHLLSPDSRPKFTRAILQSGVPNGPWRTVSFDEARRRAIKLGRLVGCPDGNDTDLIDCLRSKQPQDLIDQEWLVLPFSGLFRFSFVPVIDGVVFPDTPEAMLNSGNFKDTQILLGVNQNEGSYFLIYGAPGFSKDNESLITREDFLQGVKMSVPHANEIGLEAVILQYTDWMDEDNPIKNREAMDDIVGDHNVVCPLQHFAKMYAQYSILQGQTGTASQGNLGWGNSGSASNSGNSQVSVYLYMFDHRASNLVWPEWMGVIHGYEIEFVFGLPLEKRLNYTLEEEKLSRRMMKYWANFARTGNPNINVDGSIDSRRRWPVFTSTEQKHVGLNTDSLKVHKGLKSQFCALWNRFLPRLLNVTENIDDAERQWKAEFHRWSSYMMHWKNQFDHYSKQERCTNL

The experiment concerns the target Acetylcholinesterase (Electrophorus electricus, UniProt O42275). The experiment in a line: Inhibition of electric eel AChE using […] measured every sec for 2 mins by Ellman's method. In general terms: In Ellman's method for cholinesterases, released thiocholine reacts with DTNB.
As for `COc1cc2c(cc1OC)C(=O)C1(C2)C(c2ccncc2)C2CSCN2C12C(=O)Nc1ccccc12` (stereo not given), the half-maximal inhibitory concentration (IC50) turned out to be 480 nM.

Consider `COc1cc2c(cc1OC)C(=O)C1(C2)C(c2ccc(F)cc2)C2CSCN2C12C(=O)Nc1ccccc12` (stereo not given), for which the half-maximal inhibitory concentration (IC50) turned out to be 1120 nM. `COc1ccc(C2C3CSCN3C3(C(=O)Nc4ccccc43)C23Cc2cc(OC)c(OC)cc2C3=O)cc1OC` (stereo not given) returned an IC50 of 6200 nM. The figure for `COc1cc2c(cc1OC)C(=O)C1(C2)C(c2ccccc2Cl)C2CSCN2C12C(=O)Nc1ccccc12` (stereo not given) is 8320 nM. The figure for `COc1cc2c(cc1OC)C(=O)C1(C2)C(c2ccccc2)C2CSCN2C12C(=O)Nc1ccccc12` (stereo not given) is 5800 nM; for `COc1cc2c(cc1OC)C(=O)C1(C2)C(c2ccncc2)C2CSCN2C12C(=O)Nc1ccc(Cl)cc12` (stereo not given) it is 340 nM. For the molecule `COc1cc2c(cc1OC)C(=O)C1(C2)C(c2ccc(F)cc2)C2CSCN2C12C(=O)Nc1ccc(Cl)cc12` (stereo not given), it took 1560 nM to reach half-maximal inhibition (IC50). The figure for `COc1ccc(C2C3CSCN3C3(C(=O)Nc4ccc(Cl)cc43)C23Cc2cc(OC)c(OC)cc2C3=O)cc1OC` (stereo not given) is 2240 nM; for `COc1cc2c(cc1OC)C(=O)C1(C2)C(c2ccccc2Cl)C2CSCN2C12C(=O)Nc1ccc(Cl)cc12` (stereo not given) it is 3280 nM; for `COc1cc2c(cc1OC)C(=O)C1(C2)C(c2ccccc2)C2CSCN2C12C(=O)Nc1ccc(Cl)cc12` (stereo not given) it is 2600 nM.

Regarding `COc1cc2c(cc1OC)C(=O)C1(C2)C(c2ccncc2)C2CSCN2C12C(=O)Nc1ccc([N+](=O)[O-])cc12` (stereo not given), the IC50 was found to be 110 nM. The molecule `COc1cc2c(cc1OC)C(=O)C1(C2)C(c2ccc(F)cc2)C2CSCN2C12C(=O)Nc1ccc([N+](=O)[O-])cc12` (stereo not given) had an IC50 of 1160 nM. Turning to `COc1ccc(C2C3CSCN3C3(C(=O)Nc4ccc([N+](=O)[O-])cc43)C23Cc2cc(OC)c(OC)cc2C3=O)cc1OC` (stereo not given), the IC50 stood at 2100 nM. The figure for `COc1cc2c(cc1OC)C(=O)C1(C2)C(c2ccccc2Cl)C2CSCN2C12C(=O)Nc1ccc([N+](=O)[O-])cc12` (stereo not given) is 2120 nM. Regarding `COc1cc2c(cc1OC)C(=O)C1(C2)C(c2ccccc2)C2CSCN2C12C(=O)Nc1ccc([N+](=O)[O-])cc12` (stereo not given), it took 3160 nM to reach half-maximal inhibition (IC50).
